Laboratory results as given in patent US7396524B2, “Methods for screening compounds for proarrhythmic risk and antiarrhythmic efficacy” (Main Line Health Heart Center, priority 2005, dated 2008).
Read-outs that look alike come from different tables or passages of the source.

Tests used:
[1] = system: rabbit left ventricular wedge preparations and single rabbit ventricular myocytes
[2] = system: L-type calcium channel current (ICa,L); test: Ratio of ICa,L recovery time constant (whole-cell voltage clamp, double-pulse protocol) to endocardial APD90; assay type: cell-based; settings: 30 μM; control ratio 0.448; rabbit
Experimental: Single rabbit ventricular myocytes were isolated using the enzymatic digestion method as described in Rials et al., Circulation 1997; 96:1330-1336. The rabbit heart was initially perfused with 500 ml Ca^2+-free solution (in mM: NaCl 125, KCl 3.5, KH2PO4 1.5, MgCl2 1, NaHCO3 20, glucose 10) gassed with 95% O2-5% CO2 at 37° C. at a rate of 30 ml/min with a peristaltic pump. The heart was then perfused with 80 ml enzyme solution (48 mg collagenase (type II), 12 mg hyaluronidase, 80 mg BSA, and 300 mg taurine to the Ca^2+-free solution). The enzyme solution passed through the heart a single time before 40 ml, and recirculation after 40 ml. […]
ICa,L was recorded in rabbit single ventricular myocytes at 35.7±0.1° C. using the whole-cell voltage-clamp technique as described by Linz and Meyer, Pflugers Arch. […]
The action potentials were first recorded from the endocardium of the rabbit left ventricular wedge preparation at a basic cycle length of 2000 ms before and after exposure to a test compound. […]
The ratio of ICa,L recovery time constant to endocardial APD90 under control and after exposure to one of the test compounds described above was determined as follows: the ratio equals τ(ms)/APD90 (ms). The relative TdP risk score was then calculated based on the change in the QT interval and the ratio according to the criteria listed in Table 1. […]

[3] = system: rabbit left ventricular wedge preparations; test: Rabbit left ventricular wedge preparation: endocardial APD90, EAD and TdP
Experimental: Female rabbits weighting 2.5-3 kg were anticoagulated with heparin and anesthetized with pentobarbital (30-35 mg/kg, i.v.). The chest was opened via a left thoracotomy, and the heart was excised and placed in a cardioplegic solution consisting of cold (4° C.) normal Tyrode's solution. Transmural wedges with dimensions of approximately 1.5 cm wide and 2-3 cm long were dissected from the left ventricle. The wedge tissue was cannulated via the circumflex or left main artery and perfused with cardioplegic solution. The preparation was then placed in a small tissue bath and arterially perfused with Tyrode's solution containing 4 mM K^+ buffered with 95% O2 and 5% CO2 (T: 35.7±0.1° C., perfusion pressure: 35-45 mmHg). The ventricular wedge was allowed to equilibrate in the tissue bath until electrically stable, approximately one hour. The preparations were stimulated at basic cycle lengths (BCL) of 1000 and 2000 ms using bipolar silver electrodes insulated except at the tips and applied to the endocardial surface.
A transmural ECG signal was recorded in all experiments using extracellular silver/silver chloride electrodes placed in the Tyrode's solution bathing the preparation. Electrodes were placed 1.0 to 1.5 cm from the epicardial and endocardial surfaces, along the same vector as the transmembrane recordings (Epi: “+” pole). The QT interval was defined as the time from the onset of the QRS to the point at which the final downslope of the T wave crosses the isoelectric line. Transmembrane action potentials were recorded simultaneously from epicardial and endocardial sites of the rabbit left ventricular wedge preparations. The action potential duration was measured at 90% repolarization (APD90).

[4] = cited from earlier work
[5] = system: Purkinje fiber; settings: cited from earlier work
[6] = experimental data; cited from earlier work

| Structure (SMILES) | Maximal TdP Score ([1]; 20 min) | maximal TdP score in the testing concentration range ([1]; 20 min) | also measured |
| --- | --- | --- | --- |
| COc1c(N2C[C@@H]3CCCN[C@@H]3C2)c(F)cc2c(=O)c(C(=O)O)cn(C3CC3)c12 [moxifloxacin] | 4.0 ± 0.0 | 4.00±0.00 |  |
| CC(C)NCC(O)c1ccc(NS(C)(=O)=O)cc1 (stereo not shown) [sotalol] | 10.0 ± 0.0 | 10.00±0.00 | ratio of ICa,L recovery time constant (τ) to endocardial APD90 [2]: 0.325 |
| CN(CCOc1ccc(NS(C)(=O)=O)cc1)CCc1ccc(NS(C)(=O)=O)cc1 [dofetilide] |  |  | increase in rabbit endocardial APD90 ([3]; dofetilide 0.003 μM vs control, n=8): 76%; development of EAD (preparations) ([3]; dofetilide 0.003 μM, rabbit left ventricular wedge preparations): seven of eight; TdP (rabbits) ([3]; dofetilide 0.01 μM): all of eight; rabbit endocardial APD90 ([3]; female, rabbit, 0.003 μM): 443 ± 27 ms |
| CC(C)COCC(CN(Cc1ccccc1)c1ccccc1)N1CCCC1 (stereo not shown) [bepridil] | 7.5 ± 0.3 | 7.50±0.26 | TdP risk in humans [4]: known to cause TdP in humans; increase in the action potential duration of the Purkinje fiber [5]: have not been shown to produce a significant increase; increase in the QT interval [6]: fails to produce a significant increase |
| CN(C)CCCC1(c2ccc(F)cc2)OCc2cc(C#N)ccc21 (stereo not shown) [citalopram] | 1.3 ± 0.2 | 1.25±0.22 |  |
| O=C(NCC1CCCCN1)c1cc(OCC(F)(F)F)ccc1OCC(F)(F)F (stereo not shown) [flecainide] | 1.3 ± 0.2 | 1.25±0.22 |  |
| CCCCc1oc2ccccc2c1C(=O)c1cc(I)c(OCCN(CC)CC)c(I)c1 [amiodarone] |  |  | TdP risk in humans [4]: rarely causes TdP |
| O=C(CCCN1CCC(O)(c2ccc(Cl)cc2)CC1)c1ccc(F)cc1 [haloperidol] | 4.2 ± 0.6 | 4.20±0.58 |  |
| CNCCC(Oc1ccc(C(F)(F)F)cc1)c1ccccc1 (stereo not shown) [fluxetine] |  |  | maximal TdP score in the testing concentration range ([1]; Table 1 criteria, means ±SEM, text and FIG. 7 legend): 0.00±0.00; Maximal TdP Score ([1]; Table 2, Table 1 criteria, means ±SEM): 0.0 ± 0.0 |
| C=C[C@H]1C[N@@]2CC[C@H]1C[C@@H]2[C@@H](O)c1ccnc2ccc(OC)cc12 [quinidine] | 11.8 ± 0.2 | 11.75±0.22 |  |
